Among the test systems are OVCAR-5 ovarian; LOX IMVI melanoma; SK-MEL-28 melanoma; KM12 colon; SF-539 CNS; SR leukemia; DU-145 prostate; BT-549 breast; MDA-MB-231 breast; MCF7 breast.
Common to all, as to assay: NCI-60 cell line screen, 48 h

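Five concentrations, 48 hours, 96-well plates. At the GI50, growth is halved. TGI marks complete inhibition of growth.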

For `COC1OC(COCc2ccc(Cl)cc2)C(OCc2ccc(Cl)cc2)C1O` (stereo not drawn), the TGI with OVCAR-5 ovarian amounted to 30 µM; in the experiment with LOX IMVI melanoma, 32.8 µM; in the experiment with SK-MEL-28 melanoma, 31.4 µM; in the experiment on KM12 colon it was 29.3 µM; in the experiment with SF-539 CNS, 30.3 µM.

For the compound `COC(=O)C1C(=O)O[C@@H](c2ccc(OC)cc2)C1C(=O)OC` (stereo partly drawn), the TGI in the experiment with OVCAR-5 ovarian, in the experiment on LOX IMVI melanoma, in the experiment with SK-MEL-28 melanoma, in the experiment on KM12 colon, in the experiment on SF-539 CNS and with SR leukemia was above 100 µM throughout.

Turning to `c1ccc2c(c1)nnn1c3cnccc3nc21`, the TGI in the experiment on OVCAR-5 ovarian is above 100 µM; in the experiment on LOX IMVI melanoma, above 100 µM; in the experiment on SK-MEL-28 melanoma it was above 100 µM; in the experiment on KM12 colon it was 64.8 µM; with SF-539 CNS, 97.2 µM.

Regarding `CCCCN(CCCC)c1cc(C(=O)CCCCCN)c2ccccc2n1`, the GI50 with OVCAR-5 ovarian was 1.85 µM; with LOX IMVI melanoma, 1.69 µM; in the experiment with DU-145 prostate, 1.89 µM; with SK-MEL-28 melanoma, 1.91 µM; in the experiment on SF-539 CNS, 1.95 µM; with BT-549 breast, 8.57 µM. Moreover, the GI50 with MDA-MB-231 breast is 1.62 µM. In addition, the TGI with OVCAR-5 ovarian amounted to 3.65 µM; in the experiment with LOX IMVI melanoma it was 3.13 µM; in the experiment on DU-145 prostate, 3.41 µM; in the experiment with SK-MEL-28 melanoma, 3.37 µM; with SF-539 CNS it was 3.41 µM; in the experiment on BT-549 breast it was 23.4 µM. This compound also showed a TGI in the experiment with MDA-MB-231 breast of 3.09 µM.

For the compound `CCCCCCCCC(=O)CCCCCCCCC(=O)O`, the TGI with OVCAR-5 ovarian was 55.3 µM; in the experiment with LOX IMVI melanoma it was 30.2 µM; in the experiment with SK-MEL-28 melanoma, above 100 µM; with KM12 colon, 32 µM; with SF-539 CNS, 42.5 µM; with SR leukemia, 42.5 µM.

As for `CCOC(=O)CC(=O)N(c1ccc(OC)cc1)C(C(=O)OC)c1ccccc1` (stereo not drawn), the TGI in the experiment with OVCAR-5 ovarian, with LOX IMVI melanoma, with MCF7 breast, with DU-145 prostate, with SK-MEL-28 melanoma and in the experiment on KM12 colon was above 100 µM throughout. In addition, the TGI with SF-539 CNS and with SR leukemia was above 100 µM each time.

As for `S=C1CNC(=S)CN1`, the TGI with OVCAR-5 ovarian, with LOX IMVI melanoma, with SK-MEL-28 melanoma, in the experiment on KM12 colon, in the experiment on SF-539 CNS and with SR leukemia was above 100 µM each time.

Consider `Cc1ccc(NC(=O)C2C(=O)C(=O)N(c3ccc(C)cc3)C2=O)cc1` (stereo not drawn), for which the TGI in the experiment on OVCAR-5 ovarian, with KM12 colon, in the experiment on SF-539 CNS and with SR leukemia was above 100 µM in each case.

With `CCCCC(SC(=S)N(CC)CC)C(=O)Nc1nc(CC(=O)OCC)cs1` (stereo not drawn), the GI50 was 40.3 µM with OVCAR-5 ovarian; 29.6 µM in the experiment with LOX IMVI melanoma; 98.3 µM in the experiment with DU-145 prostate; 47.3 µM with SK-MEL-28 melanoma; 31.6 µM in the experiment with KM12 colon; 34.6 µM with SF-539 CNS. Besides, the figures for the GI50 with SR leukemia, with BT-549 breast and with MDA-MB-231 breast were 29.4 µM, 39 µM and 47.8 µM, respectively. The TGI in the experiment with OVCAR-5 ovarian, with LOX IMVI melanoma, in the experiment on DU-145 prostate, in the experiment on SK-MEL-28 melanoma, with KM12 colon and with SF-539 CNS was above 100 µM throughout. Also, the TGI with SR leukemia, with BT-549 breast and with MDA-MB-231 breast was above 100 µM each time.

Regarding `CCC[CH2][Sn]([CH2]CCC)([O]C(=O)c1cc(OC)c(OC)c(OC)c1)[O]C(=O)c1cc(OC)c(OC)c(OC)c1`, the GI50 is 2.32 µM in the experiment on OVCAR-5 ovarian; 0.695 µM with LOX IMVI melanoma; 0.633 µM with SK-MEL-28 melanoma; 1.45 µM with KM12 colon; 0.788 µM in the experiment on SF-539 CNS. Further, the TGI in the experiment with OVCAR-5 ovarian came to 3.83 µM; with LOX IMVI melanoma it was 2.77 µM; in the experiment with SK-MEL-28 melanoma, 1.99 µM; in the experiment on KM12 colon, 3.01 µM; in the experiment on SF-539 CNS it was 2.12 µM.

Regarding `Cc1cc(=O)[nH]c(CNC(=O)c2cccc3ccccc23)n1`, the TGI in the experiment on LOX IMVI melanoma, in the experiment on SK-MEL-28 melanoma, in the experiment with SF-539 CNS and with SR leukemia was above 100 µM in each case.

With `COC(=O)C1=C2C3=C(C(=O)c4ccccc4C3=O)N(Cc3ccccc3)C2(OC(C)=O)C=CC1=O` (stereo not drawn), the GI50 in the experiment on OVCAR-5 ovarian was 18.4 µM; in the experiment with MCF7 breast, 3.73 µM; in the experiment on DU-145 prostate, 14.8 µM; in the experiment with SK-MEL-28 melanoma, 27.8 µM; in the experiment on SF-539 CNS, 5.9 µM; in the experiment with BT-549 breast, 6.9 µM. Besides, the TGI is above 100 µM in the experiment with OVCAR-5 ovarian; above 100 µM in the experiment with MCF7 breast; 61.9 µM in the experiment with DU-145 prostate; 66.7 µM in the experiment on SK-MEL-28 melanoma; 23.1 µM with SF-539 CNS; 34.8 µM in the experiment on BT-549 breast. Moreover, the TGI in the experiment with MDA-MB-231 breast was 8.05 µM.

With `COC(=O)C(=C\Sc1ccccc1)/C=C/C(=O)OC(C)(C)C`, the TGI with OVCAR-5 ovarian came out at 28.8 µM; in the experiment with LOX IMVI melanoma, 21.7 µM; with SK-MEL-28 melanoma it was 26.2 µM; with KM12 colon, 24.3 µM; in the experiment with SF-539 CNS it was 27 µM; with SR leukemia it was 21 µM.

Consider `NC1=NN(c2ccccc2)C(=O)C1C(=O)C(=O)NC1C2CC3CC(C2)CC1C3` (stereo not drawn), for which the TGI with OVCAR-5 ovarian, with LOX IMVI melanoma, in the experiment with SK-MEL-28 melanoma, in the experiment on KM12 colon, with SF-539 CNS and with SR leukemia was above 100 µM throughout.

As for `COC(=O)C1C2CC3C(OC(=O)C31)C2I` (stereo not drawn), the TGI in the experiment with OVCAR-5 ovarian was above 100 µM; in the experiment with LOX IMVI melanoma it was above 100 µM; in the experiment with SK-MEL-28 melanoma it was above 10 µM; with KM12 colon, above 100 µM; in the experiment with SF-539 CNS, above 100 µM; in the experiment with SR leukemia it was above 100 µM.

With `C=CCOC1=C2CC[C@H](O)[C@@]2(C)CCC1=O`, the TGI with OVCAR-5 ovarian, in the experiment on LOX IMVI melanoma, with SK-MEL-28 melanoma, in the experiment on KM12 colon, with SF-539 CNS and in the experiment on SR leukemia was above 100 µM throughout.

Source of the values: PubChem BioAssay (NCI).
